The nature of the data set: Involuntary cough on administration of the active agent. The data set is classed as in vivo.

On to `CN(C)CCCN1c2ccccc2CCc2ccc(Cl)cc21` [clomipramine], for which, under “administered via an alternative route to pulmonary inhalation”, the cough result is reported as “the cough is not induced”. The involuntary cough entry (administered via pulmonary inhalation) is “induces an involuntary cough”.

Source of the values: patent publication US20090068276A1, “Pharmaceutical compositions” (Vectura Group plc, priority 2007, published 2009).
